# Measured values published in patent publication US10799508B2, “Methods for treating cancer using HSP90 inhibitors” (AI Therapeutics, Inc., priority 2017, dated 2020).
# Assays:
# p-STAT1 in HCC-38 cells = assay: Western blot of IFN-γ-induced pSTAT1; assay type: cell-based, human
# Procedure: (§1) FIG. 5. HCC-38 cells treated with IFN-γ alone or co-treated with ruxolitinib (5000 nM) or MPC-3100 (10-5000 nM) were analyzed by Western blot to determine protein expression levels of HSP70 and pSTAT1. β-Actin was used as a loading control.
# Since IFN-γ stimulates the expression of its target genes, such as PD-L1, which is mediated via JAK/STAT-1 signaling, the human HCC-38 cell line was used to probe the mechanism for IFN-γ-induced PD-L1 expression.
# [1] = read-out: maximum concentration (Cmax, geometric mean) in plasma; patients dosed at the recommended phase 2 dose; cited from earlier work
# [2] = system: PD-L1 cell surface expression in HCC-38 cells; assay: Flow cytometry of IFN-γ-induced PD-L1 cell surface expression, HCC-38; conditions: HCC-38, IFN-γ, MPC-3100 500 nM or 1000 nM, 48 h
# Procedure: (§4) A) SK-MEL-28 and HCC-38 (both human lines) were treated with IFN-γ (50 ng/ml), MPC-3100 (500 nM or 1000 nM) or the combination for 48 h. B) EMT-6 and B16-F10 (both murine cell lines) were also treated with IFN-γ, MPC-3100 or the combination for 24 h. PD-L1 cell surface signals were analyzed by flow cytometry. Experiments were performed in duplicate and at least 2 independent times.
# (§5) Two human cell lines were used (SK-MEL-28 and HCC-38 cells) and two murine cell lines were used (B16-F10, a melanoma cell line and EMT-6, a breast cancer cell line). All cells lines were treated with IFN-γ (50 ng/nl) and co-treated with MPC-3100 at the indicated concentrations for 48 h.
# [3] = system: IFN-γ-induced PD-L1 expression in HCC-38 cells; assay: Western blot of IFN-γ-induced PD-L1 protein expression; assay type: cell-based, human; conditions: for IFN-γ-induced PD-L1 expression: IFN-γ 50 ng/ml, 48 h, Western blot
# Procedure: FIG. 3. […] Human HCC-38 cells treated with IFN-γ alone or co-treated with ruxolitinib (5000 nM) or MPC-3100 (10-5000 nM) for 48 h were analyzed by Western blot analysis to determine protein expression levels of PD-L1. Ruxolitinib served as a positive control for inhibiting JAK2. β-Actin was used as a loading control.
# [4] = system: HSP70 expression in HCC-38 cells; conditions: HCC-38 treated with MPC-3100, Western blot
# Procedure: as §1
# [5] = system: PD-L1 cell surface expression in SK-MEL-28 cells; assay: Flow cytometry of IFN-γ-induced PD-L1 cell surface expression, SK-MEL-28; conditions: SK-MEL-28, IFN-γ, MPC-3100 500 nM or 1000 nM, 48 h
# Procedure: as §4, §5
# [6] = system: PD-L1 cell surface expression in EMT-6 cells; assay: Flow cytometry of IFN-γ-induced PD-L1 cell surface expression, EMT-6; conditions: EMT-6 (murine), IFN-γ plus MPC-3100, flow cytometry
# Procedure: as §4, §5
# [7] = system: PD-L1 cell surface expression in B16-F10 cells; assay: Flow cytometry of IFN-γ-induced PD-L1 cell surface expression, B16-F10; conditions: B16-F10 (murine), IFN-γ plus MPC-3100, flow cytometry
# Procedure: as §4, §5
# [8] = system: IFN-γ-induced PD-L1 expression in SK-MEL-28 cells; assay: 10-point dose response validation of IFN-γ-induced PD-L1 signal; assay type: cell-based, human; conditions: SK-MEL-28, IFN-γ 50 ng/ml, 48 h, FIG. 2A-E
# Procedure: FIG. 1A-D. Validation dose response curves of HSP90 inhibitors tested in the original screen. A) CNF2024; B) PF04928473; C) tanespimycin; D) HSP-990. SK-MEL-28 cells treated with IFN-γ and with the indicated HSP90 inhibitor at different concentrations. Cells were assayed for cell viability (square, % viability on left axis) and PD-L1 expression (circle, Z-score right axis) at 48 h after treatment of IFN-γ and/or HSP90 inhibitors. Quadruplicate wells were used for determination of cell viability and PD-L1 expression. Average values were plotted. […] Lysates were probed with anti PD-L1 antibody.
# FIG. 2A-E. Dose response curves of 5 additional HSP90 inhibitors. A) STA-9090, B) CUDC-305, C) MPC-3100, D) XL-888 and E) TAS-116. SK-MEL-28 cells treated with IFN-γ (50 ng/ml) and with the indicated HSP90 inhibitor at different concentrations. Cells were assayed for cell viability (square, % viability on left axis) and PD-L1 expression (circle, Z-score right axis) at 48 h after treatment of IFN-γ and/or HSP inhibitors. Quadruplicate wells were used for determination of cell viability and PD-L1 expression. Average values were plotted.
# After assessment for viability, plates were then prepared for immunostaining. Briefly, 16% paraformaldehyde (Electron Microscopy Sciences) was added to each well to a final concentration of 4%, for 10 minutes at room temperature. Following this time, the fix was aspirated and cells were washed 3 times with PBS. Cells were blocked using blocking solution (1% bovine serum albumin in PBS) for 30 minutes. After this time, the blocking reagent was aspirated and immunostaining reagent added. The immunostaining reagent consisted of a biotin conjugated-PD-L1 antibody (eBioscience) diluted in blocking buffer. Plates were sealed and kept at 4 C overnight. The following day, plates were washed 3 times with PBS followed by addition of a streptavidin-luciferase fusion protein (Invivogen) diluted in blocking buffer, for 1 h at room temperature. After this step, the plates were washed 3 times with PBS. After the final wash, PBS was aspirated and 30 uL of QUANTI-Luc™ (Invivogen) was added per well. Plates were immediately read on a plate reader (Victor 3V plate reader, 0.1s) and luciferase activity measured.
# The raw PD-L1 intensity (the luciferase readout) corresponding to drug screen plates was normalized to blank plates containing only IFN-γ-treated wells, and the resulting ratio was used for the calculation of Z-scores.
# These 4 HSP90 inhibitors were validated using the same experimental protocol employed above (using the SK-MEL-28 cells +/−IFN-γ in 384 well plates), with the only exception to the original assay design was that each drug was now tested in a 10-point dose response assay where the concentration of drug tested was 9.8-5000 nM (2 fold serial dilution). Cells were seeded and treated in quadruplicate. Viability was assessed after 48 h of treatment of four HSP 90 inhibitors and prior to harvesting the cells for testing PD-L1 signal, as described above.
# [9] = system: IDO expression in HCC-38 cells; conditions: HCC-38, MPC-3100 1000 nM or 5000 nM, 48 h, Western blot
# Procedure: Effect of HSP90 inhibitor MPC-3100 on IFN-γ-induced IDO protein levels. Human HCC-38 cells treated with IFN-γ alone or co-treated with ruxolitinib (5000 nM) or MPC-3100 (100, 1000 or 5000 nM) for 48 h. Lysates were analyzed by Western blot to determine protein expression levels of IDO.
# [10] = system: PD-L1 expression in U87 cells
# Procedure: (§2) FIG. 7. […] U87 cells were treated with MPC-3100 (500 and 1000 nM) for 24 h and analyzed by Western blotting with the indicated antibodies. β-Actin was used as a loading control.
# (§3) Lysates were then prepared and queried for protein expression using western blot analysis.
# pAkt in U87 cells = conditions: U87, MPC-3100 500 or 1000 nM, 24 h, Western blot
# Procedure: as §2, §3
smiles,measurement,setting,value
C[C@H](O)C(=O)N1CCC(CCn2c(Sc3cc4c(cc3Br)OCO4)nc3c(N)ncnc32)CC1 [MPC-3100],"concentrations blocking p-STAT1, fold lower than the Cmax at the recommended Phase 2 dose",p-STAT1 in HCC-38 cells; HCC-38,at least 10 fold
same,IFN-γ-induced p-STAT1,"p-STAT1 in HCC-38 cells; HCC-38, MPC-3100 10-5000 nM, Western blot",blocks
same,Cmax,[1],~13 µM
same,IFN-γ-induced cell surface expression of PD-L1,[2],effectively inhibited
same,IFN-γ-induced PD-L1 expression,"[3]; HCC-38, MPC-3100 100 nM",reduced
same,IFN-γ-induced PD-L1 expression,"[3]; HCC-38, MPC-3100 1000 nM",completely abrogated
same,"concentrations eliciting immuno-modulatory activity toward PD-L1, fold lower than Cmax at RP2D",[3]; compared with plasma Cmax ~13 μM,at least 10 fold
same,HSP70 expression,[4],increase
same,IFN-γ-induced cell surface expression of PD-L1,[5],effectively inhibited
same,IFN-γ-induced cell surface expression of PD-L1,[6],effectively inhibited
same,IFN-γ-induced cell surface expression of PD-L1,[7],effectively inhibited
same,concentration required to inhibit IFN-γ-induced PD-L1 expression compared with concentration required to affect cell proliferation,[8],far lower
same,IFN-γ-induced IDO expression,[9],inhibited
same,"concentrations inhibiting PD-L1 expression, fold lower than the therapeutic dose",[10]; U87,~10 fold
same,constitutive PD-L1 expression,"[10]; U87, MPC-3100 500 or 1000 nM, 24 h, Western blot",attenuation
same,pAkt,pAkt in U87 cells,reduction
